Tests used:
[1] = system: PAF-acetylhydrolase; test: Determination of PAF-acetylhydrolase activity in diluted human serum (remaining PAF read by platelet aggregation); format: biochemical; settings: human sera diluted 1 in 100 with PBS, 27 hours at 25° C.
Protocol: (§1) Sera were diluted 1 in 100 in either PBS or 0.1% "Tween" in PBS (v/v). Diluted acid-treated sera were prepared by mixing sera (1 vol.) with 0.1M citrate buffer pH 3.0 (2 vol.), and then 15 minutes later with PBS ([…].).
(§2) The solution (50μl) was then tested for platelet aggregation activity at 37° C. in a Payton dual channel aggregometer using human platelet-rich plasma (500 μl).

[2] = system: PAF-acetylhydrolase; test: Determination of PAF-acetylhydrolase activity in diluted rabbit serum (remaining PAF read by platelet aggregation); format: biochemical; settings: rabbit sera diluted 1 in 100 with PBS, 27 hours at 25° C.
Protocol: as §1, §2

[3] = system: PAF-antibodies; test: Competition assay of test substance against ^3 H-PAF for binding to PAF-antibodies; design: species or system rabbit; settings: ^3 H-PAF 22,676 cpm
Protocol: The resulting mixture was centrifuged, washed twice with phosphate buffered saline containing 0.1% "Tween" 20, centrifuged and the sediment transferred in water (200 μl) to the liquid scintillant "Aquasol" (3 ml) and counted in a liquid scintillation counter.

Molecule: 1-O-alkyl-2-O-acetyl-sn-glycero-3-phosphocholine [PAF]
- stability of PAF in serum [1]: destroyed
- stability of PAF in serum [2]: destroyed
- ASSAY COUNT ([3]; test substance 0.5 ng): 2,561 cpm
- ASSAY/CONTROL ([3]; test substance 0.5 ng): 95.2%
- ASSAY COUNT ([3]; test substance 5 ng): 2,316 cpm
- ASSAY/CONTROL ([3]; test substance 5 ng): 85.7%
- ASSAY COUNT ([3]; test substance 50 ng): 1,602 cpm
- ASSAY/CONTROL ([3]; test substance 50 ng): 57.8%
- ASSAY COUNT ([3]; test substance 500 ng): 598 cpm
- ASSAY/CONTROL ([3]; test substance 500 ng): 18.6%
- ASSAY COUNT ([3]; test substance 5,000 ng): 228 cpm
- ASSAY/CONTROL ([3]; test substance 5,000 ng): 4.1%

Molecule: CCCCCCCCCCCCCCCCOC[C@@H](O)COP(=O)([O-])OCC[N+](C)(C)C [lyso-PAF]
- ASSAY COUNT ([3]; test substance 580 ng): 2,744 cpm
- ASSAY COUNT ([3]; test substance 5,800 ng): 2,746 cpm

Molecule: lyso-lecithin
- ASSAY COUNT ([3]; test substance 500 ng): 2,668 cpm
- ASSAY/CONTROL ([3]; test substance 500 ng): 99.4%
- ASSAY COUNT ([3]; test substance 5,000 ng): 2,658 cpm
- ASSAY/CONTROL ([3]; test substance 5,000 ng): 99.0%

Molecule: lecithin
- ASSAY COUNT ([3]; test substance 500 ng): 2,545 cpm
- ASSAY/CONTROL ([3]; test substance 500 ng): 99.6%
- ASSAY COUNT ([3]; test substance 5,000 ng): 2,994 cpm

— patent US5061626A, “Antigenic anarogues of platelet activating factor” (University of Sydney, priority 1986, dated 1991)
